In general, IC50 refers to the concentration that inhibits the measured activity by half.

Structures are written as SMILES. Bridge positions count the residues as written; N and C are the ends. Square brackets hold non-standard residues; d marks the D form. Peptide text beside a SMILES is read from it. * marks the point of attachment. ξ: configuration not given here. Phe(4-COOH) = N[C@@H](Cc1ccc(C(=O)O)cc1)C(=O)O; Bip = N[C@@H](Cc1ccc(-c2ccccc2)cc1)C(=O)O; Phe(3-CN) = N#Cc1cccc(C[C@H](N)C(=O)O)c1; Phe(3-Cl) = N[C@@H](Cc1cccc(Cl)c1)C(=O)O; Phe(4-CN) = N#Cc1ccc(C[C@H](N)C(=O)O)cc1; Phe(3-Me) = Cc1cccc(C[C@H](N)C(=O)O)c1; dBta = N[C@H](Cc1csc2ccccc12)C(=O)O; Val(3-OH) = CC(C)(O)[C@H](N)C(=O)O; 2Pal = N[C@@H](Cc1ccccn1)C(=O)O; 3Pal = N[C@@H](Cc1cccnc1)C(=O)O; 4Pal = N[C@@H](Cc1ccncc1)C(=O)O; Cha = N[C@@H](CC1CCCCC1)C(=O)O; Cit = NC(=O)NCCC[C@H](N)C(=O)O; Ile(3ξ) = CCC(C)[C@H](N)C(=O)O; Thr(3ξ) = CC(O)[C@H](N)C(=O)O; Pip = O=C(O)[C@@H]1CCCCN1; Carboxymethyl = O=C(O)C*; NMeA = CN[C@@H](C)C(=O)O; Nle = CCCC[C@H](N)C(=O)O; Orn = NCCC[C@H](N)C(=O)O; Dab = NCC[C@H](N)C(=O)O; Dap = NC[C@H](N)C(=O)O

The record followed here is patent US20240409585A1, “MACROCYCLIC IMMUNOMODULATORS” (priority 2021, published 2024).

T1 sequence (Q15116 25-288): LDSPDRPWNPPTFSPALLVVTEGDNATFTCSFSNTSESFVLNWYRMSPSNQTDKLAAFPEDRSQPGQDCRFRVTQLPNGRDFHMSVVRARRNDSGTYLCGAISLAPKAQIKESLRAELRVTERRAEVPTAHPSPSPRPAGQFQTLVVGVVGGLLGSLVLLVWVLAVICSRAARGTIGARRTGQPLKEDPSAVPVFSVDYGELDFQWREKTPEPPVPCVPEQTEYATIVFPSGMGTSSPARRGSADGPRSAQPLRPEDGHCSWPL

The first experiment has as its target T1, PE-labeled human PD-L1-Ig binding to Jurkat cell line over-expressing human PD-1 (Jurkat-PD-1) (Homo sapiens, UniProt Q15116).
T1 construct: expressed in transfected cells; host or cells: Jurkat
The experiment can be described thus: Jurkat-PD-1 Cell Binding High-Content Screening Assay (CBA): Method 1. The note with it: Jurkat HPDL1 PD1 IC50 (uM) (Method 1), Jurkat-hPD-1 cells, PE-labeled PD-L1-Ig 20 nM final.
As for `CC(C)C[C@@H]1NC(=O)[C@H](CCN)NC(=O)[C@@H](CC(C)C)NC(=O)[C@H](C)N(C)C(=O)[C@H](CCCNC(=N)N)NC(=O)[C@H](Cc2ccc(-c3ccccc3)cc2)NC(=O)[C@H](C(C)C)NC(=O)[C@H](Cc2c[nH]c3ccccc23)NC(=O)[C@H](CC(=O)O)NC(=O)[C@H](Cc2ccc(O)cc2)NC(=O)[C@H](Cc2cccnc2)NC(=O)CSC[C@@H](C(=O)N[C@@H](C)C(N)=O)NC(=O)[C@H](CO)NC(=O)[C@H](C(C)C)NC1=O` [Compound 1034] ({CH2CO}-[3Pal]YDWV[Bip]R[NMeA][dL][Dab]LVSCA-NH2; thioether N-14), the concentration for half-maximal inhibition (IC50) was found to be 0.05 µM.

The experiment is the same for the next values; noted with them: Jurkat-hPD-1 cells, PE-labeled PD-L1-Ig 20 nM final; read-out: Jurkat HPDL1 PD1 IC50 (uM) (Method 1).
With `CC(C)C[C@@H]1NC(=O)[C@H](CCN)NC(=O)[C@@H](CC(C)C)NC(=O)[C@H](C)N(C)C(=O)[C@H](Cc2cnc[nH]2)NC(=O)[C@H](Cc2ccc(-c3ccccc3)cc2)NC(=O)[C@H](C(C)C)NC(=O)[C@H](Cc2c[nH]c3ccccc23)NC(=O)[C@H](CC(=O)O)NC(=O)[C@H](Cc2cccc(C#N)c2)NC(=O)[C@H](CN)NC(=O)CSC[C@@H](C(=O)N[C@@H](C)C(N)=O)NC(=O)[C@H]([C@@H](C)O)NC(=O)[C@H](C(C)C)NC1=O` [Compound 1432] ({CH2CO}-[Dap][Phe(3-CN)]DWV[Bip]H[NMeA][dL][Dab]LVTCA-NH2; thioether N-14), the IC50 was 0.05 µM.
Same read-out and setting: next, `CC(C)C[C@@H]1NC(=O)[C@H](CCCNC(=N)N)NC(=O)[C@@H](Cc2ccccc2)NC(=O)[C@H](C)N(C)C(=O)[C@H](CCCNC(=N)N)NC(=O)[C@H](Cc2ccc(-c3ccccc3)cc2)NC(=O)[C@H](C(C)C)NC(=O)[C@H](Cc2c[nH]c3ccccc23)NC(=O)[C@H](CC(=O)O)NC(=O)[C@H](Cc2ccc(O)cc2)NC(=O)[C@H](CC(N)=O)NC(=O)CSC[C@@H](C(=O)N[C@@H](C)C(N)=O)NC(=O)[C@H]([C@@H](C)O)NC(=O)[C@H](C(C)C)NC1=O` [Compound 1153] ({CH2CO}-NYDWV[Bip]R[NMeA][dF]RLVTCA-NH2; thioether N-14): 0.19 µM; `CCNC(=O)[C@H](CCN)NC(=O)[C@@H]1CSCC(=O)N[C@@H](Cc2ccncc2)C(=O)N[C@@H](Cc2ccc(C(=O)O)cc2)C(=O)N[C@@H](CC(=O)O)C(=O)N[C@@H](Cc2c[nH]c3ccccc23)C(=O)N[C@@H](CC(C)C)C(=O)N[C@@H](Cc2ccc(-c3ccccc3)cc2)C(=O)N[C@@H]([C@@H](C)CC)C(=O)N(C)[C@@H](C)C(=O)N[C@H](CC(C)C)C(=O)N[C@@H](CCN)C(=O)N[C@@H](CC2CCCCC2)C(=O)N[C@@H](C(C)(C)O)C(=O)N[C@@H](CO)C(=O)N1` [Compound 1849] ({CH2CO}-[4Pal][Phe(4-COOH)]DWL[Bip]I[NMeA][dL][Dab][Cha][Val(3-OH)]SC[Dab]-NHEt; thioether N-14): 0.01 µM.
Still for that read-out and setting: to `CC(C)C[C@@H]1NC(=O)[C@H](CCCNC(=N)N)NC(=O)[C@@H](CC(C)C)NC(=O)[C@H](C)N(C)C(=O)[C@H](CCCNC(=N)N)NC(=O)[C@H](Cc2ccc(-c3ccccc3)cc2)NC(=O)[C@H](C(C)C)NC(=O)[C@H](Cc2cccc(Cl)c2)NC(=O)[C@H](CC(=O)O)NC(=O)[C@H](Cc2ccc(O)cc2)NC(=O)[C@H](CC(N)=O)NC(=O)CSC[C@@H](C(=O)N[C@@H](C)C(N)=O)NC(=O)[C@H]([C@@H](C)O)NC(=O)[C@H](C(C)C)NC1=O` [Compound 1127] ({CH2CO}-NYD[Phe(3-Cl)]V[Bip]R[NMeA][dL]RLVTCA-NH2; thioether N-14) belongs 0.09 µM.
The same measure, in the same setting: next, `CC(C)C[C@@H]1NC(=O)[C@H](Cc2c[nH]c3ccccc23)NC(=O)[C@H](CC(=O)O)NC(=O)[C@H](Cc2ccc(C#N)cc2)NC(=O)[C@H](Cc2ccccc2)NC(=O)CSC[C@@H](C(=O)N[C@@H](C)C(N)=O)NC(=O)[C@H](CO)NC(=O)[C@H](C(C)C)NC(=O)[C@H](CC(C)C)NC(=O)[C@H](CC(N)=O)NC(=O)[C@@H](C)NC(=O)[C@H](C)N(C)C(=O)[C@H](C(C)C)NC(=O)[C@H](Cc2ccc(-c3ccccc3)cc2)NC1=O` [Compound 1726] ({CH2CO}-F[Phe(4-CN)]DWL[Bip]V[NMeA][dA]NLVSCA-NH2; thioether N-14): 0.01 µM.
With `CCC(C)[C@@H]1NC(=O)[C@H](Cc2ccc(-c3ccccc3)cc2)NC(=O)[C@H](C(C)C)NC(=O)[C@H](Cc2c[nH]c3ccccc23)NC(=O)[C@H](CC(=O)O)NC(=O)[C@H](Cc2ccc(OCC(=O)O)cc2)NC(=O)[C@H](C(C)O)NC(=O)CSC[C@@H](C(=O)N[C@H](CC(N)=O)C(N)=O)NC(=O)[C@H](CO)NC(=O)[C@H](C(C)(C)O)NC(=O)[C@H](CC2CCCCC2)NC(=O)[C@H](CCN)NC(=O)[C@@H](CC(C)C)NC(=O)[C@H](C)N(C)C1=O` (stereo partly drawn) [Compound 2141] ({CH2CO}-[Thr(3ξ)]Y(Carboxymethyl)DWV[Bip][Ile(3ξ)][NMeA][dL][Dab][Cha][Val(3-OH)]SC[dN]-NH2; thioether N-14), the IC50 is 0.02 µM.
The same measure, in the same setting: next, `CC(C)C[C@@H]1NC(=O)[C@H](Cc2c[nH]c3ccccc23)NC(=O)[C@H](CC(=O)O)NC(=O)[C@H](Cc2ccc(OCC(=O)O)cc2)NC(=O)[C@H](Cc2ccccc2)NC(=O)CSC[C@@H](C(N)=O)NC(=O)[C@H](CO)NC(=O)[C@H](C(C)C)NC(=O)[C@H](CC(C)C)NC(=O)[C@H](CC(N)=O)NC(=O)[C@@H](CC(C)C)NC(=O)[C@H](C)N(C)C(=O)[C@H](CCCNC(N)=O)NC(=O)[C@H](Cc2ccc(-c3ccccc3)cc2)NC1=O` [Compound 1627] ({CH2CO}-FY(Carboxymethyl)DWL[Bip][Cit][NMeA][dL]NLVSC-NH2; thioether N-14): 0.06 µM.
On to `Cc1cccc(C[C@@H]2NC(=O)[C@H](CC(=O)O)NC(=O)[C@H](Cc3ccncc3)NC(=O)[C@H](Cc3ccc(OCC(=O)O)cc3)NC(=O)CSC[C@@H](C(N)=O)NC(=O)[C@H](CO)NC(=O)[C@H](C(C)C)NC(=O)[C@H](CC(C)C)NC(=O)[C@H](CC(N)=O)NC(=O)[C@@H](CC(C)C)NC(=O)[C@H](C)N(C)C(=O)[C@H](C(C)C)NC(=O)[C@H](Cc3ccc(-c4ccccc4)cc3)NC(=O)[C@H](CC(C)C)NC2=O)c1` [Compound 1595] ({CH2CO}-Y(Carboxymethyl)[4Pal]D[Phe(3-Me)]L[Bip]V[NMeA][dL]NLVSC-NH2; thioether N-14), for which the 50% inhibitory concentration (IC50) is 0.01 µM.
For `Cc1cccc(C[C@@H]2NC(=O)[C@H](CC(=O)O)NC(=O)[C@H](Cc3ccc(O)cc3)NC(=O)[C@H](CC(N)=O)NC(=O)CSC[C@@H](C(N)=O)NC(=O)[C@H]([C@@H](C)O)NC(=O)[C@H](C(C)C)NC(=O)[C@H](CC(C)C)NC(=O)[C@H](CCN)NC(=O)[C@@H](CC(C)C)NC(=O)[C@H](C)N(C)C(=O)[C@H](CCCNC(N)=O)NC(=O)[C@H](Cc3ccc(-c4ccccc4)cc3)NC(=O)[C@H](C(C)C)NC2=O)c1` [Compound 1641] ({CH2CO}-NYD[Phe(3-Me)]V[Bip][Cit][NMeA][dL][Dab]LVTC-NH2; thioether N-14), the concentration for half-maximal inhibition (IC50) came out at 0.14 µM.
Consider `Cc1cccc(C[C@@H]2NC(=O)[C@H](CC(=O)O)NC(=O)[C@H](Cc3ccc(OCC(=O)O)cc3)NC(=O)[C@H](CN)NC(=O)CSC[C@@H](C(N)=O)NC(=O)[C@H]([C@@H](C)O)NC(=O)[C@H](C(C)C)NC(=O)[C@H](CC3CCCCC3)NC(=O)[C@H](CCN)NC(=O)[C@@H](CC(C)C)NC(=O)[C@@H]3CCCCN3C(=O)[C@H](Cc3ccc(OCC(=O)O)cc3)NC(=O)[C@H](Cc3ccc(-c4ccccc4)cc3)NC(=O)[C@H](Cc3ccc(OCC(=O)O)cc3)NC2=O)c1` [Compound 1891] ({CH2CO}-[Dap]Y(Carboxymethyl)D[Phe(3-Me)]Y(Carboxymethyl)[Bip]Y(Carboxymethyl)[Pip][dL][Dab][Cha]VTC-NH2; thioether N-14), for which the half-maximal inhibitory concentration (IC50) was determined as 0.15 µM.
With `CC(C)C[C@@H]1NC(=O)[C@H](CCN)NC(=O)[C@@H](CC(C)C)NC(=O)[C@H](C)N(C)C(=O)[C@H](CCCNC(N)=O)NC(=O)[C@H](Cc2ccc(-c3ccccc3)cc2)NC(=O)[C@H](C(C)C)NC(=O)[C@H](Cc2c[nH]c3ccccc23)NC(=O)[C@H](CC(=O)O)NC(=O)[C@H](Cc2ccccn2)NC(=O)[C@H](Cc2cccnc2)NC(=O)CSC[C@@H](C(=O)N[C@@H](C)C(N)=O)NC(=O)[C@H]([C@@H](C)O)NC(=O)[C@H](C(C)C)NC1=O` [Compound 1334] ({CH2CO}-[3Pal][2Pal]DWV[Bip][Cit][NMeA][dL][Dab]LVTCA-NH2; thioether N-14), the concentration for half-maximal inhibition (IC50) came out at 0.63 µM.
Regarding `CC(C)C[C@@H]1NC(=O)[C@H](Cc2c[nH]c3ccccc23)NC(=O)[C@H](CC(=O)O)NC(=O)[C@H](Cc2ccc(O)cc2)NC(=O)[C@H](Cc2ccccc2)NC(=O)CSC[C@@H](C(=O)N[C@@H](C)C(N)=O)NC(=O)[C@H](CO)NC(=O)[C@H](C(C)C)NC(=O)[C@H](CC(C)C)NC(=O)[C@H](CC(N)=O)NC(=O)[C@@H](C)NC(=O)[C@H](C)N(C)C(=O)[C@H](C(C)C)NC(=O)[C@H](Cc2ccc(-c3ccccc3)cc2)NC1=O` [Compound 1727] ({CH2CO}-FYDWL[Bip]V[NMeA][dA]NLVSCA-NH2; thioether N-14), the half-inhibitory concentration (IC50) worked out at 0.01 µM.
Consider `CCCC[C@@H]1NC(=O)CSC[C@@H](C(=O)NCC(N)=O)NC(=O)[C@H](CO)NC(=O)[C@H](C(C)C)NC(=O)[C@H](CC(C)C)NC(=O)[C@H](CC(=O)O)NC(=O)[C@H](CC(N)=O)NC(=O)[C@H](C)N(C)C(=O)[C@H](C(C)C)NC(=O)[C@H](Cc2ccc(-c3ccccc3)cc2)NC(=O)[C@H](CC(C)C)NC(=O)[C@H](Cc2c[nH]c3ccccc23)NC(=O)[C@H](CC(=O)O)NC(=O)[C@H](Cc2ccc(O)cc2)NC1=O` [Compound 1828] ({CH2CO}-[Nle]YDWL[Bip]V[NMeA]NDLVSCG-NH2; thioether N-14), for which the IC50 amounted to 0.82 µM.
With `CC(C)C[C@@H]1NC(=O)[C@H](CCCN)NC(=O)[C@@H](Cc2csc3ccccc23)NC(=O)[C@H](C)N(C)C(=O)[C@H](CCCNC(=N)N)NC(=O)[C@H](Cc2ccc(-c3ccccc3)cc2)NC(=O)[C@H](C(C)C)NC(=O)[C@H](Cc2c[nH]c3ccccc23)NC(=O)[C@H](CC(=O)O)NC(=O)[C@H](Cc2ccc(O)cc2)NC(=O)[C@H](Cc2ccccc2)NC(=O)CSC[C@@H](C(=O)N[C@@H](C)C(N)=O)NC(=O)[C@H]([C@@H](C)O)NC(=O)[C@H](C(C)C)NC1=O` [Compound 1171] ({CH2CO}-FYDWV[Bip]R[NMeA][dBta][Orn]LVTCA-NH2; thioether N-14), the IC50 was 0.15 µM.
